Measurements taken from BindingDB's records for doi:10.7270/Q2CN72C0 (Burnham Center For Chemical Genomics, 2010).

Target: T1, Nucleotide-binding oligomerization domain-containing protein 1 (Homo sapiens, UniProt Q9Y239)
T1 sequence (Q9Y239 whole entry): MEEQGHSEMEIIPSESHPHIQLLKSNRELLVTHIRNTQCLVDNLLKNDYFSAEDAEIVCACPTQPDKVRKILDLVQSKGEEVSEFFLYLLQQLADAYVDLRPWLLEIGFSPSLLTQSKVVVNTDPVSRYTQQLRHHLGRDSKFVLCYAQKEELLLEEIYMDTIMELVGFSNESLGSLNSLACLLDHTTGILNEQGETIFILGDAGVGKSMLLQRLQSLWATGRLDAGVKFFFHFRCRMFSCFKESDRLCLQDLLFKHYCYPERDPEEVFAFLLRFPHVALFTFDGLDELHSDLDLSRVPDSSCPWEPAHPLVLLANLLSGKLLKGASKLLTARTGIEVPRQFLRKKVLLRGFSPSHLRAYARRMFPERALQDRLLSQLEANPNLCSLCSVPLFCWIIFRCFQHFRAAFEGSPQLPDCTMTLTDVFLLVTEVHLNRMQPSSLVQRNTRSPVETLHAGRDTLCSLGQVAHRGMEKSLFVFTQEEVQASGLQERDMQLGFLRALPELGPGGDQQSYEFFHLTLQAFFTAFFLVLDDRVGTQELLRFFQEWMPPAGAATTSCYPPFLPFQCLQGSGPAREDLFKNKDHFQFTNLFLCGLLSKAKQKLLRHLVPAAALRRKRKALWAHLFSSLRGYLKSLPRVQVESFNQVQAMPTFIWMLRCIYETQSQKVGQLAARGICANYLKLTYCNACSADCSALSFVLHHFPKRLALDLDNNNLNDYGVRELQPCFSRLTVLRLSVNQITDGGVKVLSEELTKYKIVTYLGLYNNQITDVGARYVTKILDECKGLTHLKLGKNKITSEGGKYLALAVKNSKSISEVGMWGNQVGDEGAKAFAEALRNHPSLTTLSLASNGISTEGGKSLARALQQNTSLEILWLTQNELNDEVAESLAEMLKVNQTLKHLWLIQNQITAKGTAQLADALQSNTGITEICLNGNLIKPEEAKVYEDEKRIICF
Assay: NOD1 signaling inhibitors, primary screen, cell-based, luminescence, uHTS (AID 1578)

## Cc1cc(CN=Nc2ncnc(N)c2[N+](=O)[O-])c(C)n1-c1ccccc1
  EC50: 4.14 µM

## Cc1cc(SCC(=O)OCC(=O)C(C#N)c2nc3ccccc3[nH]2)c(C)cc1Br (stereo not given)
  EC50: > 20 µM

## O=C1C(=O)N(c2nccs2)C(c2ccccc2)C1C(=O)c1ccc2c(c1)OCCO2 (stereo not given)
  EC50: 11.5 µM

## Oc1cccc(CN=Nc2ccc(Cl)nn2)c1O
  EC50: > 20 µM

## CCCOC1=CC(=O)C(C=NNC(=S)Nc2ccccc2[N+](=O)[O-])C=C1 (stereo not given) [1-(2-nitrophenyl)-3-[[(E)-(6-oxo-4-propoxy-1-cyclohexa-2,4-dienylidene)methyl]amino]thiourea]
  EC50: 11.9 µM

## C=CCN1C(=O)C(=NNC(=S)Nc2cccc(C)c2)c2ccccc21 [1-(3-methylphenyl)-3-[(Z)-(2-oxidanylidene-1-prop-2-enyl-indol-3-ylidene)amino]thiourea]
  EC50: 1.09 µM

## CCCCCCC1=Cc2c/c(=C3/NN=C(c4ccccc4OC)O3)c(=O)oc2=CC1=O [6-Hexyl-7-hydroxy-3-[5-(2-methoxy-phenyl)-[1,3,4]oxadiazol-2-yl]-chromen-2-one]
  EC50: 6.54 µM

## CCCCCCC1=Cc2c/c(=C3/NN/C(=C4/C=CC=CC4=O)O3)c(=O)oc2=CC1=O [(3E)-6-hexyl-3-[(5E)-5-(6-oxocyclohexa-2,4-dien-1-ylidene)-1,3,4-oxadiazolidin-2-ylidene]chromene-2,7-dione]
  EC50: 4.51 µM

## Cc1ccc(O)c(/N=C/C2=CC(Cc3ccccc3)C=C([N+](=O)[O-])C2=O)c1 (stereo not given) [(6E)-6-[[(5-methyl-2-oxidanyl-phenyl)amino]methylidene]-2-nitro-4-(phenylmethyl)cyclohexa-2,4-dien-1-one]
  EC50: 6.21 µM

## Cc1ccc(C)c(SCC(=O)OCC(=O)C(C#N)c2nc3ccccc3[nH]2)c1 (stereo not given) [MLS000392255]
  EC50: > 20 µM

## Cc1cc(CN=Nc2nc(N)ncc2[N+](=O)[O-])c(C)n1-c1ccccc1F [MLS000392273]
  EC50: 4.64 µM

## COc1ccc(NS(=O)(=O)c2ccc(N=NC(C)c3ccncc3)c([N+](=O)[O-])c2)cc1 (stereo not given) [MLS000393523]
  EC50: 4.33 µM

## O=C1C([N+](=O)[O-])=CC(Cl)=CC1CN=Nc1ccccn1 (stereo not given) [MLS000539830]
  EC50: 9.12 µM

## CCOC(=O)c1sc(N2C(=O)C(=O)C(C(=O)c3ccco3)C2c2cccc([N+](=O)[O-])c2)nc1C (stereo not given) [MLS001082998]
  EC50: > 20 µM

## Oc1c(Br)cc(Br)cc1CN=Nc1ccc(Cl)nn1 [MLS001171109]
  EC50: > 20 µM

## C=CCN1C(=O)C(=NNC(=S)Nc2cccc(OC)c2)c2ccccc21 [SMR000132469]
  EC50: > 20 µM

## CCOc1ccc(-c2csc(/C(C#N)=C/C3C=CC(=O)C([N+](=O)[O-])=C3)n2)cc1 (stereo not given) [SMR000237723]
  EC50: 1.52 µM

## CN1C(=O)C(=NNC(=S)Nc2ccccc2F)c2cc(S(=O)(=O)N3CCOCC3)ccc21 [SMR000314843]
  EC50: > 20 µM

## Cc1cc(N=NCc2ccccc2[N+](=O)[O-])nc(-n2nc(C)cc2C)n1 [SMR000426946]
  EC50: 6.21 µM

## COc1cc(CN=Nc2nc3c(c(=O)n(C)c(=O)n3C)n2Cc2ccccc2)ccc1OC(=O)c1ccco1 [[4-[[(7-benzyl-1,3-dimethyl-2,6-dioxopurin-8-yl)hydrazinylidene]methyl]-2-methoxyphenyl] furan-2-carboxylate]
  EC50: 5.22 µM
